These molecules were tested against T1, NS3-NS4 protease (full-length NS3/NS4A-2) (Hepatitis C virus genotype 1a, UniProt P27958) (assay: NS3-NS4 protease assay / NS3 inhibition assay (RETS1 substrate, fluorescence kinetic read)). Details: not given.
T1 construct: Recombinant E. coli or Baculovirus full-length NS3 was diluted to 3.33 μM with assay buffer; made in house; host or cells: E. coli or baculovirus (insect cells)
Format: biochemical
Description: NS3 complex formation with NS4A-2.
The appropriate amount of NS4A-2 to 8.3 mM in assay buffer was added to equal the volume of NS3 in step 2.1.1 (conversion factor—3.8 mg/272 μL assay buffer). The material was transferred to an eppendorf tube and place in water bath in 4° C. refrigerator.
After equilibration to 4° C., equal volumes of NS3 and NS4A-2 solutions were combined in an eppendorf tube, mix gently with a manual pipettor, and incubate mixture for 15 minutes in the 4° C. water bath.
After 15 minutes at 4° C., the NS3/NS4A-2 eppendorf tube was removed and place it in a room temperature water bath for 10 minutes. NS3/NS4A-2 was alliquoted at appropriate volumes and store at −80° C. (E. coli NS3 run at 2 nM in assay, aliquot at 25 μL. BV NS3 run at 3 nM in assay, aliquot at 30 μL).
Sample compounds were dissolved to 10 mM in DMSO then diluted to 2.5 mM (1:4) in DMSO.
The E. coli. […] Using the manual multichannel pipettor, careful not to introduce bubbles into the plate, add 50 μL assay buffer to wells A01-H01 of a black Costar 96-well polypropylene storage plate.
Using the manual multichannel pipettor, careful not to introduce bubbles into the plate, add 50 μL of diluted NS3/NS4A-2 from step 2.2.6 to wells A02-H12 of plate in step 2.2.7. Using the manual multichannel pipettor, careful not to introduce bubbles into the plate, transfer 25 μL of the wells in drug dilution plate in step 2.2.5 to corresponding wells in assay plate in step 2.2.8. Change tips on multichannel pipettor for each row of compounds transferred. Using the manual multichannel pipettor, careful not to introduce bubbles into the plate, mix the wells from the assay plate in step 2.2.9 by aspirating and dispensing 35 μL of the 75 μL in each well five times. Change tips on multichannel pipettor for each row of wells mixed. Cover plate with a polystyrene plate lid and pre-incubate the plate from step 2.2.10 containing NS3 protease and sample compounds 10 minutes at room temperature. While plate from step 2.2.11 is pre-incubating, dilute RETS1 substrate in a 15 mL polypropylene centrifuge tube.
After the plate in step is done pre-incubating, and using the manual multichannel, add 25 μL of substrate to all wells on the plate. Quickly mix the plate as in step 2.2.10, mixing 65 μL of the 100 μL in the wells.
Read the plate in kinetic mode on the Molecular Devices SpectraMax
IC50s are determined using a four parameter curve fit equation, and converted to Ki's using the following Km's:
where Ki=IC50/(1+[S]/Km))

T1 sequence (P27958 1027-1657): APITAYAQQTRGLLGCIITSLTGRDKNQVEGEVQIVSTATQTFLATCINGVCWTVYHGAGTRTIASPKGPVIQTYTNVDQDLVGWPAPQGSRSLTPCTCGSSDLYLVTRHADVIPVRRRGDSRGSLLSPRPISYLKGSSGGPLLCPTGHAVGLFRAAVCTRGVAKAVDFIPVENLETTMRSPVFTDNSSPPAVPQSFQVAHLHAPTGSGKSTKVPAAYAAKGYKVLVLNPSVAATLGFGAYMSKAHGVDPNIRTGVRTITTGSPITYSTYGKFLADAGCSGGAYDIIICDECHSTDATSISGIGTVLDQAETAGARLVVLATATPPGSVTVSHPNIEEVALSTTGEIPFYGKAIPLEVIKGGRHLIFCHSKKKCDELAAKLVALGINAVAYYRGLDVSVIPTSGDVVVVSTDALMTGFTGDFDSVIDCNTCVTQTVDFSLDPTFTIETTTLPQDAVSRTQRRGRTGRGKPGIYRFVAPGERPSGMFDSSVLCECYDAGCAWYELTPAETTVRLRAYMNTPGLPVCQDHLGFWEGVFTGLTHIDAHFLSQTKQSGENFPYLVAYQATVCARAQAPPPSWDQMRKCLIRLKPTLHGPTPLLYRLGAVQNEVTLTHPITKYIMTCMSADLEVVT

SMILES	IC50 [µM]
O=C(N[C@H]1CCCCC/C=C\[C@@H]2C[C@@]2(C(=O)NS(=O)(=O)C2CC2)NC(=O)[C@@H]2C[C@@H](OC(=O)N3Cc4cccc(F)c4C3)CN2C1=O)C(O)C(F)(F)F (single isomer, unassigned) [Compound 247]	< 0.1

Same assay, conditions: Table 22; read-out: NS3-NS4 IC50

SMILES	IC50 [µM]
C[C@H](NC(=O)[C@@]12C[C@H]1/C=C\CCCCC[C@H](NC(=O)OC(C)(C)C)C(=O)N1CCC[C@H]1C(=O)N2)c1ccccc1 [Compound 2301]	< 10
CC(C)(C)OC(=O)N[C@H]1CCCCC/C=C\[C@@H]2C[C@@]2(C(=O)NC2CCC2)NC(=O)[C@@H]2CCCN2C1=O [Compound 2303]	< 1
CC(C)(C)OC(=O)N[C@H]1CCCCC/C=C\[C@@H]2C[C@@]2(C(=O)Nc2ccc(F)cc2)NC(=O)[C@@H]2CCCN2C1=O [Compound 2304]	< 1
CC(C)(C)OC(=O)N[C@H]1CCCCC/C=C\[C@@H]2C[C@@]2(C(=O)NC#N)NC(=O)[C@@H]2CCCN2C1=O [Compound 2306]	< 1
CC(C)(C)OC(=O)N[C@H]1CCCCC/C=C\[C@@H]2C[C@@]2(C(=O)NCc2ccccc2)NC(=O)[C@@H]2CCCN2C1=O [Compound 2307]	< 1
CC(C)(C)OC(=O)N[C@H]1CCCCC/C=C\[C@@H]2C[C@@]2(C(=O)NCc2ccc(Cl)cc2)NC(=O)[C@@H]2CCCN2C1=O [Compound 2308]	< 1

Same assay, conditions: read-out: NS3-NS4 IC50

SMILES	IC50 [µM]
CC(C)OC(=O)N[C@H]1CCCCC/C=C\[C@@H]2C[C@@]2(C(=O)NS(=O)(=O)Nc2ccc(Cl)cc2)NC(=O)[C@@H]2CCCN2C1=O [Compound 418]	> 10
CCOC(=O)[C@@]12C[C@H]1/C=C\CCCCC[C@H](NC(=O)OC(C)(C)C)C(=O)N1Cc3ccc(Oc4cccc(Cl)c4)cc3CC1C(=O)N2 (stereo partly shown) [Compound 2006]	< 1
CC(C)(C)OC(=O)N[C@H]1CCCCC/C=C\[C@@H]2C[C@@]2(C(=O)NS(=O)(=O)c2ccccc2)NC(=O)[C@@H]2CCCN2C1=O [Compound 2101]	< 10
CC(C)(C)OC(=O)N[C@H]1CCCCC/C=C\[C@@H]2C[C@@]2(C(=O)NS(=O)(=O)c2ccc([N+](=O)[O-])cc2)NC(=O)[C@@H]2CCCN2C1=O [Compound 2102]	< 10
CC(C)(C)OC(=O)N[C@H]1CCCCC/C=C\[C@@H]2C[C@@]2(C(=O)NS(C)(=O)=O)NC(=O)[C@@H]2CCCN2C1=O [Compound 2103]	< 1
CC(C)S(=O)(=O)NC(=O)[C@@]12C[C@H]1/C=C\CCCCC[C@H](NC(=O)OC(C)(C)C)C(=O)N1CCC[C@H]1C(=O)N2 [Compound 2104]	< 10
CCCS(=O)(=O)NC(=O)[C@@]12C[C@H]1/C=C\CCCCC[C@H](NC(=O)OC(C)(C)C)C(=O)N1CCC[C@H]1C(=O)N2 [Compound 2105]	< 1
CCCCS(=O)(=O)NC(=O)[C@@]12C[C@H]1/C=C\CCCCC[C@H](NC(=O)OC(C)(C)C)C(=O)N1CCC[C@H]1C(=O)N2 [Compound 2106]	< 0.1
CC(C)(C)OC(=O)NC1CCCCCC=CC2CC2(C(=O)NS(=O)(=O)C(F)(F)F)NC(=O)C2CCCN2C1=O (stereo not shown) [Compound 2107]	< 1
CC(C)(C)OC(=O)NC1CCCCCC=CC2CC2(C(=O)NS(=O)(=O)c2cc(Cl)cc(Cl)c2)NC(=O)C2CCCN2C1=O (stereo not shown) [Compound 2108]	< 10
CC(C)(C)OC(=O)NC1CCCCCC=CC2CC2(C(=O)NS(=O)(=O)c2ccccc2Cl)NC(=O)C2CCCN2C1=O (stereo not shown) [Compound 2109]	< 10
CC(C)(C)OC(=O)N[C@H]1CCCCC/C=C\[C@@H]2C[C@@]2(C(=O)NS(=O)(=O)c2cnccc2Cl)NC(=O)[C@@H]2CCCN2C1=O [Compound 2128]	< 10
CC(C)(C)OC(=O)N[C@H]1CCCCC/C=C\[C@@H]2C[C@@]2(C(=O)NS(=O)(=O)c2ccc(Cl)cc2)NC(=O)[C@@H]2CCCN2C1=O [Compound 2129]	< 10
Cc1ccc(CC(=O)N[C@H]2CCCCC/C=C\[C@@H]3C[C@@]3(C(=O)NS(=O)(=O)C3CC3)NC(=O)C3CCCN3C2=O)cc1 (stereo partly shown) [Compound 2140]	> 10
CO[C@@H]1C[C@H]2C(=O)N[C@]3(C(=O)NS(=O)(=O)C4CC4)C[C@H]3/C=C\CCCCC[C@H](NC(=O)OC(C)(C)C)C(=O)N2C1 [Compound 2146, 1S,4R,6S,14S,18R)-tert-Butyl 4-cyclopropylsulfonylaminocarbonyl-2,15-dioxo-3,16-diaza-18-methoxy-tricyclo[14.3.0.0^4,6]nonadec-7-ene-14-yl carbamate]	> 10
CC(C)(C)OC(=O)N[C@H]1CCCCC/C=C\[C@@H]2C[C@@]2(C(=O)NS(=O)(=O)c2cccc3ccccc23)NC(=O)[C@@H]2CCCN2C1=O [Compound 2148]	< 10
CC(C)(C)OC(=O)N[C@H]1CCCCC/C=C\[C@@H]2C[C@@]2(C(=O)NS(=O)(=O)c2ccc(Cl)cc2Cl)NC(=O)[C@@H]2CCCN2C1=O [Compound 2153]	< 10
CC(C)N(C(C)C)S(=O)(=O)NC(=O)[C@@]12C[C@H]1/C=C\CCCCC[C@H](NC(=O)OC(C)(C)C)C(=O)N1CCC[C@H]1C(=O)N2 [Compound 2209]	< 1

SMILES	IC50 [µM]
CC(C)(C)OC(=O)N[C@H]1CCCCC/C=C\[C@@H]2C[C@@]2(C(=O)NS(=O)(=O)NC2CCC2)NC(=O)[C@@H]2CCCN2C1=O [Compound 2214]	< 1
CC(C)(C)OC(=O)N[C@H]1CCCCC/C=C\[C@@H]2C[C@@]2(C(=O)NS(=O)(=O)NC2CCCC2)NC(=O)[C@@H]2CCCN2C1=O [Compound 2215]	< 1
CCNS(=O)(=O)NC(=O)[C@@]12C[C@H]1/C=C\CCCCC[C@H](NC(=O)OC(C)(C)C)C(=O)N1CCC[C@H]1C(=O)N2 [Compound 2216]	< 10
CCCNS(=O)(=O)NC(=O)[C@@]12C[C@H]1/C=C\CCCCC[C@H](NC(=O)OC(C)(C)C)C(=O)N1CCC[C@H]1C(=O)N2 [Compound 2217]	< 1
CC(C)CNS(=O)(=O)NC(=O)[C@@]12C[C@H]1/C=C\CCCCC[C@H](NC(=O)OC(C)(C)C)C(=O)N1CCC[C@H]1C(=O)N2 [Compound 2218]	< 0.1
CC(C)(C)OC(=O)N[C@H]1CCCCC/C=C\[C@@H]2C[C@@]2(C(=O)NS(=O)(=O)N2CCCCC2)NC(=O)[C@@H]2CCCN2C1=O [Compound 2219]	< 10
CCC1CCCCN1S(=O)(=O)NC(=O)[C@@]12C[C@H]1/C=C\CCCCC[C@H](NC(=O)OC(C)(C)C)C(=O)N1CCC[C@H]1C(=O)N2 (stereo partly shown) [Compound 2220]	< 1
COC(=O)C1CCCCN1S(=O)(=O)NC(=O)[C@@]12C[C@H]1/C=C\CCCCC[C@H](NC(=O)OC(C)(C)C)C(=O)N1CCC[C@H]1C(=O)N2 (stereo partly shown) [Compound 2221]	< 1
CC(C)(C)OC(=O)N[C@H]1CCCCC/C=C\[C@@H]2C[C@@]2(C(=O)NS(=O)(=O)NC2CC2c2ccccc2)NC(=O)[C@@H]2CCCN2C1=O (stereo partly shown) [Compound 2224]	< 10
CC1CCCCN1S(=O)(=O)NC(=O)[C@@]12C[C@H]1/C=C\CCCCC[C@H](NC(=O)OC(C)(C)C)C(=O)N1CCC[C@H]1C(=O)N2 (stereo partly shown) [Compound 2225]	< 10
CC(C)(C)OC(=O)N[C@H]1CCCCC/C=C\[C@@H]2C[C@@]2(C(=O)NS(=O)(=O)Nc2ccc(Cl)c(Cl)c2)NC(=O)[C@@H]2CCCN2C1=O [Compound 2234]	< 1
CCc1ccc(NS(=O)(=O)NC(=O)[C@@]23C[C@H]2/C=C\CCCCC[C@H](NC(=O)OC(C)(C)C)C(=O)N2CCC[C@H]2C(=O)N3)cc1 [Compound 2242]	< 1
COc1ccc(NS(=O)(=O)NC(=O)[C@@]23C[C@H]2/C=C\CCCCC[C@H](NC(=O)OC(C)(C)C)C(=O)N2CCC[C@H]2C(=O)N3)cc1 [Compound 2244]	< 0.1
CC(C)(C)OC(=O)N[C@H]1CCCCC/C=C\[C@@H]2C[C@@]2(C(=O)NS(=O)(=O)NCC2CC2)NC(=O)[C@@H]2CCCN2C1=O [Compound 2245]	< 0.1
CC(C)(C)OC(=O)N[C@H]1CCCCC/C=C\[C@@H]2C[C@@]2(C(=O)NS(=O)(=O)Nc2ccccc2)NC(=O)[C@@H]2CCCN2C1=O [Compound 2246]	< 1
CC(C)(C)OC(=O)N[C@H]1CCCCC/C=C\[C@@H]2C[C@@]2(C(=O)NS(=O)(=O)Nc2ccc(Cl)cc2)NC(=O)[C@@H]2CCCN2C1=O [Compound 2247]	> 10
CN(CCc1ccccc1)S(=O)(=O)NC(=O)[C@@]12C[C@H]1/C=C\CCCCC[C@H](NC(=O)OC(C)(C)C)C(=O)N1CCC[C@H]1C(=O)N2 [Compound 2248]	< 10
CN(CC#N)S(=O)(=O)NC(=O)[C@@]12C[C@H]1/C=C\CCCCC[C@H](NC(=O)OC(C)(C)C)C(=O)N1CCC[C@H]1C(=O)N2 [Compound 2249]	< 1

Source: patent publication US8299021B2, “Macrocyclic inhibitors of hepatitis C virus replication” (InterMune, Inc., priority 2005, dated 2012)
